“Also recorded” adds a separate entry of the source. Read-outs that look alike come from different tables or passages of the source.
Assays:
[1] = tested on: TBARS (lipid peroxidation); assay: Lipid peroxidation (TBARS) assay, i.c.v Abeta mouse model; assay type: in vivo, C57/BL6 mice; conditions: 50 and 100 mg/Kg
Protocol: (§1) Eight-week old Wild type C57/BL6 mice were treated i.p. with sulfanegen at 50 and 100 mg/kg dose during the entire duration of experiment. The mice were injected with intracerebroventricular (i.c.v) Aβ1-42 on day 3 after initiation of drug treatment (1 nmol/mouse). Behavioral test (T-maze) was conducted 6 days after Aβ1-42 injection, which was followed by euthanization on day 8. Biochemical analysis of the collected brain tissues was conducted using ELISA method for quantitation of Aβ1-42, and immunohistochemical analysis for GFAP (inflammatory marker). The brain tissues were also analyzed for oxidative stress markers (GSH assay, see Example 5; and protein carbonyls, see Example 6). • Groups: • Saline control N=12, (N=5 study 2; N=7 study 3) • Abeta control N=15, (N=7 study 2; N=8 study 3) • Sulfanegen, 50 mg/kg, N=7 • Sulfanegen, 100 mg/kg, N=7
The extent of lipid peroxidation, in the i.c.v Abeta mouse model (see Example 1), was correlated to the levels of thiobarbituric (TBA) acid-reactive entities (TBARS assay). Homogenized brains were exposed to TBA-trichloroacetic acid (TCA)-chloridic acid reagent (HCl; 0.37% TBA, 0.25 N HCl, and 15% TCA) (1:1:1, 2 mL) and incubated for 15 minutes at […]. […] Total protein was determined through the BCA protein assay. […]

GSH = assay: Brain glutathione (GSH) and GSSG level, i.c.v Abeta mouse model; assay type: in vivo, C57/BL6 mice
Protocol: as §1
The brain GSH and GSSG level were measured with Glutathione assay kit (Cayman Chemical, Ann Arbor, MI) using the i.c.v Abeta mouse model (see Example 1). A total of 50 μl of sample was added to each well, and 150 μl the assay cocktail (MES buffer, reconstituted cofactor mixture, enzyme mixture, water, and DTNB) were added to the wells. The absorbance was measured at 414 nm using Spectra Max M5 microplate reader. Assay range was calculated under the standard curve (0-16 μM GSH or 0-8 μM GSSG). Results were expressed as nmol/mg protein and ratio of GSH/GSSG. Total GSH levels were higher in sulfanegen treated groups at both doses 50 mg/Kg and 100 mg/Kg. […] Reduced GSH levels were slightly lower in […] but not statistically significant.
The brain tissue for biochemical analysis was rapidly homogenized in these buffers 1) TBS (20 mM Tris-HCl and 150 mM NaCl) buffer with protease inhibitors and 5 M Guanidine-HCl in 50 mM Tris-HCl buffer for Aβ1-42 ELISA assay (FIG. 11, see Example 11 below), 2) 50 mM IVIES buffer for GSH (FIG. 8C, see Example 5) and Protein Carbonyl assay (FIG. 8B, see Example 6), 3) RIPA buffer with protease inhibitors for TBARS assay (FIG. 8A, see Example 7). […]

[2] = Tolerability in i.c.v Aβ1-42 injected nontransgenic mice; assay type: in vivo, C57/BL6 mice
Protocol: as §1

[3] = Oral bioavailability: plasma levels after i.v. and p.o. dosing (LC-MS/MS); assay type: in vivo; conditions: mouse
Protocol: To ascertain the distribution of sulfanegen to the brain, plasma and brain samples were harvested from intraperitoneally treated animal groups and analyzed via LC-MS/MS. A saline solution of sulfanegen was injected into the mouse peritoneum at a dose of 50 mg/kg. Specifically, samples were collected at 0.25, 0.5, 1, 2, and 4 h after the drug administration. […] Samples were immediately centrifuged at 3000 rpm for 10 min at 4° C., and the separated top plasma layer was transferred into a new tube. Blood samples were stored at −80° C. until LC-MS/MS analysis. For brain samples, brain tissue was extracted from the animal and washed with copious volumes of ice-cold D-PBS for removal of blood from the sample. The brain samples were homogenized by adding 1:5 (w/v) of ice-cold D-PBS into the tube and using a mechanical homogenizer on them. Homogenized brain samples were stored at −80° C.
Similar experimental design was used for determination of oral bioavailability of sulfanegen (Table 2). Plasma samples were collected after intravenous and oral administration of the compound and concentration of sulfanegen in these samples was determined using LC-MS/MS analysis.

protein carbonyls = assay: Protein carbonyl assay, i.c.v Abeta mouse model; assay type: in vivo, C57/BL6 mice
Protocol: as §1
The protein carbonyl content is used as a marker of protein oxidation in the i.c.v Abeta mouse model (see Example 1). The amount of protein-hydrozone produced is quantified spectrophotometrically by Protein Carbonyl Colorimetric assay kit (Cayman Chemical, Ann Arbor, MI). 100 μl of sample was transferred into two tubes, one containing 400 μl of DNPH and the other tube containing 400 μl of 2.5 M HCl. […] The absorbance was measured at 385 nm using Spectra Max M5 microplate reader. […]

SH-SY-5Y cells = assay: In vitro amyloid toxicity protection assay (CCK-8); assay type: cell-based
Protocol: SH-SY-5Y cells were seeded at a density of 20000/well in a 96-well plate and incubated overnight at 37° C. Following day, cells were treated with media according to their respective treatment group in triplicate. Vehicle-only treated cells are used as control groups. […] On day 3, Cells were incubated with media containing CCK-8 (<10%). After 3 hours of incubation, the absorbance is measured at 450 nm (reference wavelength 600 nm) using Me5 plate reader (Spectramax). The final volume in a well is kept at 100 μL CCK-8 (CK04, Dojindo labs) in this assay.

## O=C(O)C1(O)CSC(O)(C(=O)O)CS1 (centres unmarked) [sulfanegen]
[1]
  TBARS (lipid peroxidation) levels in brain: significantly reduced
GSH; 50 mg/Kg and 100 mg/Kg
  total GSH levels in brain: higher
GSH; 100 mg/Kg, compared to both vehicle and amyloid beta treatment
  reduced GSH levels in brain: significantly higher
GSH; 50 or 100 mg/Kg
  GSH level as oxidative stress marker (legend of FIGS. 8A-8C): significantly reduced
[2]; 50 mg/kg i.p.
  tolerability: well tolerated
[2]; 100 mg/kg i.p.
  mice that died during the experiment: Two mice (out of 7)
[2]; 100 mg/kg, total N=8/group
  toxicity: liver and kidney enzymes: elevations in liver and kidney enzymes in 2 animals
[2]; 50 and 100 mg/kg i.p., compared to Aβ1-42-only control group
  body weights: No marked decrease or increase in weights
[2]; both tested doses (50 and 100 mg/kg i.p.)
  other signs of distress: No other signs of distress
[3]; iv, 10 mg/kg, read-out: AUC, plasma, i.v.
  AUC: 32.6 µM·h
[3]; oral, p.o. 50 mg/kg vs i.v. 10 mg/kg
  bioavailability: 15.1%
[3]; po, 50 mg/kg, read-out: AUC, plasma, p.o.
  AUC: 24.6 µM·h
Protein carbonyls; 50 mg/kg
  protein carbonyl levels in brain: significantly reduced
Protein carbonyls; 50 or 100 mg/Kg
  protein carbonyl levels (legend of FIGS. 8A-8C): significantly reduced
SH-SY-5Y cells; SH-SY-5Y, 20 μM Aβ1-42, CCK-8
  protection against Aβ1-42 reduction in cell viability: prevented; also recorded: high protective effect
SH-SY-5Y cells; SH-SY-5Y, with 20 μM Aβ1-42
  cell growth: increase in cell growth, even above the control levels
SH-SY-5Y cells; no difference at higher 500 μM dose
  dose above which protective effect appears saturated: above 350 μM
